Assays:
Format in all cases: cell-based
Salmonella species [1] = assay: MIC, plate test (Table 1); details: 37°C, 24 hours, read-out: Minimum inhibitory concentration (MIC)
Protocol: (§1) The minimum inhibitory concentration (MIC) was determined in the plate test on a complete nutrient base of the following composition: 10 g of proteose-peptone, 10 g of veal infusion, 2 g of dextrose, 3 g of sodium chloride, 2 g of disodium phosphate, 1 g of sodium acetate, 0.01 g of adenine sulphate, 0.01 g of guanine hydrochloride, 0.01 g of uracil, 0.01 g. of xantin, 12 g of agar-agar and 1 liter of water.
(§2) The incubation temperature was 37°C and the incubation time was 24 hours.

Pseudomonas aeruginosa w [2] = assay: MIC, plate test (Table 1); details: 37°C, 24 hours, read-out: Minimum inhibitory concentration (MIC)
Protocol: as §1, §2

Pseudomonas aeruginosa B [3] = assay: MIC, plate test (Table 1); details: 37°C, 24 hours, read-out: Minimum inhibitory concentration (MIC)
Protocol: as §1, §2

[4] = tested on: Staphylococcus aureus 133; assay: MIC, plate test (Table 1); details: 37°C, 24 hours, read-out: Minimum inhibitory concentration (MIC)
Protocol: as §1, §2

Streptococcus pyogenes = assay: MIC, plate test (Table 1); details: with serum, 37°C, 24 hours, read-out: Minimum inhibitory concentration (MIC)
Protocol: as §1, §2

Klebsiella 63 = assay: MIC, plate test (Table 1); details: 37°C, 24 hours, read-out: Minimum inhibitory concentration (MIC)
Protocol: as §1, §2

Klebsiella 8085 = assay: MIC, plate test (Table 1); details: 37°C, 24 hours, read-out: Minimum inhibitory concentration (MIC)
Protocol: as §1, §2

Escherichia coli A261 = assay: MIC, plate test (Table 1); details: 37°C, 24 hours, read-out: Minimum inhibitory concentration (MIC)
Protocol: as §1, §2

Escherichia coli C165 = assay: MIC, plate test (Table 1); details: 37°C, 24 hours, read-out: Minimum inhibitory concentration (MIC)
Protocol: as §1, §2

Proteus vulgaris 1017 [5] = assay: MIC, plate test (Table 1); details: 37°C, 24 hours, read-out: Minimum inhibitory concentration (MIC)
Protocol: as §1, §2

Mycoplasma bovirhinis = assay: MIC, series dilution test, PPLO-medium (Table 1); details: 37°C, 18, 24 and 48 hours, read-out: Minimum inhibitory concentration (MIC)
Protocol: (§3) The mycoplasmae were tested in the series dilution test (PPLO-medium) at 37°C, with observations after 18, 24 and 48 hours.

Mycoplasma gallisepticum = assay: MIC, series dilution test, PPLO-medium (Table 1); details: Mycoplasmoides gallisepticum, 37°C, 18, 24 and 48 hours, read-out: Minimum inhibitory concentration (MIC)
Protocol: as §3

Mycoplasma granularum = assay: MIC, series dilution test, PPLO-medium (Table 1); details: Acholeplasma granularum, 37°C, 18, 24 and 48 hours, read-out: Minimum inhibitory concentration (MIC)
Protocol: as §3

[6] = tested on: Mycobacterium tuberculosis; assay: MIC, series dilution test, Jenssen egg medium; details: 37°C, read-out: minimum inhibitory concentration
Protocol: The compounds of Examples 12 and 13 show minimum inhibitory concentrations of 32 γ/ml of nutrient medium in the series dilution test, Jenssen egg medium, 37°C, against Mycobacterium tuberculosis.

Clostridium tetani = details: 100 γ/ml, 24 hours, 37°C
[7] = tested on: Proteus indole-negative, species; assay: Turbidity test in Mueller-Hinton nutrient solution; details: 100 γ/ml, 24 hours, 37°C
[8] = tested on: Diplococcus pneumoniae species; assay: Turbidity test in Mueller-Hinton nutrient solution; details: 100 γ/ml, 24 hours, 37°C
[9] = tested on: Staphylococcus aureus 133; assay: Turbidity test in Mueller-Hinton nutrient solution; details: 100 γ/ml, 24 hours, 37°C
[10] = tested on: Pasteurella pseudotuberculosis; details: 100 γ/ml, 24 hours, 37°C
Pseudomonas aeruginosa B [11] = assay: Turbidity test in Mueller-Hinton nutrient solution; details: 100 γ/ml, 24 hours, 37°C
[12] = tested on: Aeromonas hydrophila species; assay: Turbidity test in Mueller-Hinton nutrient solution; details: 100 γ/ml, 24 hours, 37°C
Escherichia coli 14 = assay: Turbidity test in Mueller-Hinton nutrient solution; details: 100 γ/ml, 24 hours, 37°C
Proteus vulgaris 1017 [13] = assay: Turbidity test in Mueller-Hinton nutrient solution; details: 100 γ/ml, 24 hours, 37°C
[14] = tested on: Corynebacterium pyogenes M; assay: Turbidity test in Mueller-Hinton nutrient solution; details: 100 γ/ml, 24 hours, 37°C
Pseudomonas aeruginosa w [15] = assay: Turbidity test in Mueller-Hinton nutrient solution; details: 100 γ/ml, 24 hours, 37°C
Escherichia coli C 165 = assay: Turbidity test in Mueller-Hinton nutrient solution; details: 100 γ/ml, 24 hours, 37°C
Escherichia coli A 261 = assay: Turbidity test in Mueller-Hinton nutrient solution; details: 100 γ/ml, 24 hours, 37°C
Clostridium botulinium = tested on: Clostridium botulinium
[16] = tested on: Haemophilus influenzae 281; assay: Turbidity test in Mueller-Hinton nutrient solution; details: 100 γ/ml, 24 hours, 37°C
[17] = tested on: Bordetella bronchiseptica; assay: Turbidity test in Mueller-Hinton nutrient solution; details: 100 γ/ml, 24 hours, 37°C
Enterococcus species = assay: Turbidity test in Mueller-Hinton nutrient solution; details: 100 γ/ml, 24 hours, 37°C
Streptococcus pyogenes W = assay: Turbidity test in Mueller-Hinton nutrient solution; details: 100 γ/ml, 24 hours, 37°C
Borrelia species = assay: Turbidity test in Mueller-Hinton nutrient solution; details: 100 γ/ml, 24 hours, 37°C
Salmonella species [18] = assay: Turbidity test in Mueller-Hinton nutrient solution; details: 100 γ/ml, 24 hours, 37°C
Protocol: (§4) 100 γ/ml of the compounds according to the invention are dissolved in Mueller-Hinton nutrient solution, with addition of 0.1% of glucose. The nutrient solution contains […] microbes per ml. The mixture is incubated in glass test tubes for 24 hours at 37°C and after this time the degree of turbidity is determined.

Shigella species = assay: Turbidity test in Mueller-Hinton nutrient solution; details: 100 γ/ml, 24 hours, 37°C
Protocol: as §4

Klebsiella K 63 = assay: Turbidity test in Mueller-Hinton nutrient solution; details: 100 γ/ml, 24 hours, 37°C
Bacteroides species = assay: Turbidity test in Mueller-Hinton nutrient solution; details: 100 γ/ml, 24 hours, 37°C
Klebsiella K 10 = assay: Turbidity test in Mueller-Hinton nutrient solution; details: 100 γ/ml, 24 hours, 37°C
Enterobacter species = assay: Turbidity test in Mueller-Hinton nutrient solution; details: 100 γ/ml, 24 hours, 37°C
[19] = tested on: Corynebacterium diphtheriae gravis; assay: Turbidity test in Mueller-Hinton nutrient solution; details: 100 γ/ml, 24 hours, 37°C
[20] = tested on: Neisseria catarrhalis species; assay: Turbidity test in Mueller-Hinton nutrient solution; details: 100 γ/ml, 24 hours, 37°C
Lactobacillus species = assay: Turbidity test in Mueller-Hinton nutrient solution; details: 100 γ/ml, 24 hours, 37°C
Serratia species = assay: Turbidity test in Mueller-Hinton nutrient solution; details: 100 γ/ml, 24 hours, 37°C
[21] = tested on: Proteus indole-positive, species; assay: Turbidity test in Mueller-Hinton nutrient solution; details: 100 γ/ml, 24 hours, 37°C
Brucella species = details: 100 γ/ml, 24 hours, 37°C

CC(=O)Nc1n[n+]([O-])c2ccccc2[n+]1[O-] [Example 2, 3-(N-acetylamino)-benzo-1,2,4-triazine-1,4-di-N-oxide]
< 0.125 µg/mL: MIC (Mycoplasma bovirhinis) | MIC (Mycoplasma gallisepticum) | MIC (Mycoplasma granularum)
1 µg/mL: MIC (Salmonella species [1]) | MIC (Streptococcus pyogenes)
8 µg/mL: MIC (Pseudomonas aeruginosa w [2])
< 0.5 µg/mL: MIC [4] | MIC (Klebsiella 63) | MIC (Klebsiella 8085) | MIC (Escherichia coli A261) | MIC (Escherichia coli C165) | MIC (Proteus vulgaris 1017 [5])
4 µg/mL: MIC (Pseudomonas aeruginosa B [3])

CCC(=O)Nc1n[n+]([O-])c2ccccc2[n+]1[O-] [Example 3, 3-(N-propionylamino)-benzo-1,2,4-triazine-1,4-di-N-oxide]
1 µg/mL: MIC [4] | MIC (Klebsiella 8085) | MIC (Proteus vulgaris 1017 [5])
4 µg/mL: MIC (Salmonella species [1]) | MIC (Klebsiella 63) | MIC (Escherichia coli A261) | MIC (Escherichia coli C165)
< 0.125 µg/mL: MIC (Mycoplasma bovirhinis) | MIC (Mycoplasma gallisepticum) | MIC (Mycoplasma granularum)
128 µg/mL: MIC (Pseudomonas aeruginosa w [2]) | MIC (Pseudomonas aeruginosa B [3]) | MIC (Streptococcus pyogenes)

CC(=O)CC(=O)Nc1n[n+]([O-])c2ccccc2[n+]1[O-] [Example 4, 3-(N-acetoacetylamino)-benzo-1,2,4-triazine-1,4-di-N-oxide]
32 µg/mL: MIC [6]
8 µg/mL: MIC (Salmonella species [1]) | MIC [4] | MIC (Streptococcus pyogenes) | MIC (Escherichia coli A261) | MIC (Escherichia coli C165) | MIC (Proteus vulgaris 1017 [5])
128 µg/mL: MIC (Pseudomonas aeruginosa w [2]) | MIC (Pseudomonas aeruginosa B [3]) | MIC (Klebsiella 63)
4 µg/mL: MIC (Klebsiella 8085)

CCCCCCCCCCCCCCCCCC(=O)Nc1n[n+]([O-])c2ccccc2[n+]1[O-] [Example 6]
32 µg/mL: MIC [6]
128 µg/mL: MIC (Salmonella species [1]) | MIC (Pseudomonas aeruginosa w [2]) | MIC (Pseudomonas aeruginosa B [3]) | MIC [4] | MIC (Streptococcus pyogenes) | MIC (Klebsiella 63) | MIC (Escherichia coli A261) | MIC (Escherichia coli C165) | MIC (Proteus vulgaris 1017 [5])
8 µg/mL: MIC (Klebsiella 8085)

CNC(=O)Nc1n[n+]([O-])c2ccccc2[n+]1[O-] [Example 7, 1'-methyl-3'-[1,4-dioxo-benzo-1,2,4-triazin-3-yl]-urea]
128 µg/mL: MIC (Pseudomonas aeruginosa w [2]) | MIC (Pseudomonas aeruginosa B [3])
1 µg/mL: MIC [4] | MIC (Streptococcus pyogenes) | MIC (Klebsiella 8085) | MIC (Proteus vulgaris 1017 [5])
8 µg/mL: MIC (Klebsiella 63)
4 µg/mL: MIC (Salmonella species [1]) | MIC (Escherichia coli A261) | MIC (Escherichia coli C165)

CNC(=O)Nc1n[n+]([O-])c2ccccc2[n+]1[O-] [Example 12, 1'-[1,4-dioxo-benzo-1,2,4-triazin-3-yl]-3'-methylurea]
32 µg/mL: MIC [6]
remained free of turbidity: turbidity after incubation (Clostridium tetani) | turbidity after incubation [7] | turbidity after incubation [8] | turbidity after incubation [9] | turbidity after incubation [10] | turbidity after incubation (Pseudomonas aeruginosa B [11]) | turbidity after incubation [12] | turbidity after incubation (Escherichia coli 14) | turbidity after incubation (Proteus vulgaris 1017 [13]) | turbidity after incubation [14] | turbidity after incubation (Pseudomonas aeruginosa w [15]) | turbidity after incubation (Escherichia coli C 165) | turbidity after incubation (Escherichia coli A 261) | turbidity after incubation (Clostridium botulinium) | turbidity after incubation [16] | turbidity after incubation [17] | turbidity after incubation (Enterococcus species) | turbidity after incubation (Streptococcus pyogenes W) | turbidity after incubation (Borrelia species) | turbidity after incubation (Salmonella species [18]) | turbidity after incubation (Shigella species) | turbidity after incubation (Klebsiella K 63) | turbidity after incubation (Bacteroides species) | turbidity after incubation (Klebsiella K 10) | turbidity after incubation (Enterobacter species) | turbidity after incubation [19] | turbidity after incubation [20] | turbidity after incubation (Lactobacillus species) | turbidity after incubation (Serratia species) | turbidity after incubation [21] | turbidity after incubation (Brucella species)

O=C(NCCO)Nc1n[n+]([O-])c2ccccc2[n+]1[O-] [Example 14, 1'-[1,4-dioxo-benzo-1,2,4-triazin-3-yl]-3'-[β-hydroxy-ethyl]-urea]
remained free of turbidity: turbidity after incubation (Clostridium tetani) | turbidity after incubation [7] | turbidity after incubation [8] | turbidity after incubation [9] | turbidity after incubation [10] | turbidity after incubation (Pseudomonas aeruginosa B [11]) | turbidity after incubation [12] | turbidity after incubation (Escherichia coli 14) | turbidity after incubation (Proteus vulgaris 1017 [13]) | turbidity after incubation [14] | turbidity after incubation (Pseudomonas aeruginosa w [15]) | turbidity after incubation (Escherichia coli C 165) | turbidity after incubation (Escherichia coli A 261) | turbidity after incubation (Clostridium botulinium) | turbidity after incubation [16] | turbidity after incubation [17] | turbidity after incubation (Enterococcus species) | turbidity after incubation (Streptococcus pyogenes W) | turbidity after incubation (Borrelia species) | turbidity after incubation (Salmonella species [18]) | turbidity after incubation (Shigella species) | turbidity after incubation (Klebsiella K 63) | turbidity after incubation (Bacteroides species) | turbidity after incubation (Klebsiella K 10) | turbidity after incubation (Enterobacter species) | turbidity after incubation [19] | turbidity after incubation [20] | turbidity after incubation (Lactobacillus species) | turbidity after incubation (Serratia species) | turbidity after incubation [21] | turbidity after incubation (Brucella species)
